The values below come from ChEMBL document CHEMBL1268994, “Synthesis and molecular modelling studies of prenylated pyrazolines as MAO-B inhibitors” (Bioorg Med Chem Lett, 2010).

Data set [1] addresses T1, Amine oxidase [flavin-containing] B (Homo sapiens, UniProt P27338).
T1 sequence (P27338 whole entry): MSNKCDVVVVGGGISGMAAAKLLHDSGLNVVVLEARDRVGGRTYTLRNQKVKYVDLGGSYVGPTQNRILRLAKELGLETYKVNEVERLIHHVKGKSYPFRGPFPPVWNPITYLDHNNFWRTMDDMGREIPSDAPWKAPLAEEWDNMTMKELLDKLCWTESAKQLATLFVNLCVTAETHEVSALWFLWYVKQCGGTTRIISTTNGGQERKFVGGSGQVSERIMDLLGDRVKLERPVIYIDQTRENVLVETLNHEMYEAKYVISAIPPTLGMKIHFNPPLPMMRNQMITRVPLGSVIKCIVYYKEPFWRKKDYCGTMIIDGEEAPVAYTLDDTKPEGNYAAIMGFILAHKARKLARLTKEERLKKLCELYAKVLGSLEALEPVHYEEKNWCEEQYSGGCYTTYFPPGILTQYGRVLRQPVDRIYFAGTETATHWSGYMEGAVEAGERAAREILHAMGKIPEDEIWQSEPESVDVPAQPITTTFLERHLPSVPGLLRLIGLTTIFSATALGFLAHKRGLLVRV
Nature of the data set: Inhibition of human recombinant MAO-B expressed in baculovirus infected BT1 cells at 1 mM. The following applies: 1000 µM.

Data set [2] deals with T1, Amine oxidase [flavin-containing] B. The experiment in a line: biochemical. Type of data set: cell-based.
The target of data set [3] is T2, Amine oxidase [flavin-containing] A (Homo sapiens, UniProt P21397).
T2 sequence (P21397 whole entry): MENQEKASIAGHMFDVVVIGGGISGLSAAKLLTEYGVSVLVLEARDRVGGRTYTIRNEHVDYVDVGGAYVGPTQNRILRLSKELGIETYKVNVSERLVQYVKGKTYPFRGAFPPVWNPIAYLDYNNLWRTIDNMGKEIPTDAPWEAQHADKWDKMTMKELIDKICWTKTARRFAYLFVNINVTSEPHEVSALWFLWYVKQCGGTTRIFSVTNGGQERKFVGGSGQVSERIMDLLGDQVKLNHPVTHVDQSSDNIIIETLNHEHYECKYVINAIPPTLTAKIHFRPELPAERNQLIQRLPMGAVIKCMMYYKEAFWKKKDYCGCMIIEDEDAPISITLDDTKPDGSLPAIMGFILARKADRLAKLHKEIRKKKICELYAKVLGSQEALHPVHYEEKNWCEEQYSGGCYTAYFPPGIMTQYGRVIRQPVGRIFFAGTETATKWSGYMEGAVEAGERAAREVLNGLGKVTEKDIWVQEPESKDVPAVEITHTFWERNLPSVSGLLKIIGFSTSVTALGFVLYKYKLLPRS
Nature of the data set: Inhibition of human recombinant MAO-A expressed in baculovirus infected BT1 cells at 100 uM.

In data set [4] the target is T2, Amine oxidase [flavin-containing] A. Nature of the data set: biochemical.

As for `O=C(NCCN1CCOCC1)c1ccc(Cl)cc1` [MOCLOBEMIDE], the “inhibition (INH)” value in data set [1] is reported as “Not Active”.

For orientation: IC50 means the concentration that inhibits the measured activity by half. A high value points to weaker potency in that assay. `CC(C)=CCOc1ccc(C2=NN(C(N)=S)C(c3ccccc3)C2)c(O)c1` (configuration not stated) gave an IC50 in data set [2] of 52500 nM. The “inhibition (INH)” value in data set [3] was “Not Active”.

For `CC(C)=CCOc1ccc(C2=NN(C(N)=S)C(c3ccc(Cl)cc3)C2)c(O)c1` (configuration not stated), half-maximal inhibition in data set [2] (IC50) was put at 832 nM. In data set [3], the “inhibition (INH)” value was “Not Active”.

On to `CC(=O)N1N=C(c2ccc(OCC=C(C)C)cc2O)CC1c1ccc(OCc2ccccc2)cc1` (configuration not stated), for which the values for the IC50 in data set [2] and in data set [4] were 174 nM and 316 nM, respectively.
